This is an account of results in publication PMC7044277 (Nature Communications, 2020).

Common to all, as to assay type: cell-based
Assay [1] deals with T1, 320 non-olfactory GPCRs (Homo sapiens, UniProt P46663).
T1 construct: expressed in transfected cells; host or cells: HTLA cells

For assay [2], the target named is T2, 320 non-olfactory GPCRs (Homo sapiens, UniProt Q99527).
T2 construct: expressed in transfected cells; host or cells: HTLA cells

The target of assay [3] is T3, 320 non-olfactory GPCRs (Homo sapiens, UniProt Q9UBS5).
T3 construct: expressed in transfected cells; host or cells: HTLA cells
T3 sequence (Q9UBS5 20-961): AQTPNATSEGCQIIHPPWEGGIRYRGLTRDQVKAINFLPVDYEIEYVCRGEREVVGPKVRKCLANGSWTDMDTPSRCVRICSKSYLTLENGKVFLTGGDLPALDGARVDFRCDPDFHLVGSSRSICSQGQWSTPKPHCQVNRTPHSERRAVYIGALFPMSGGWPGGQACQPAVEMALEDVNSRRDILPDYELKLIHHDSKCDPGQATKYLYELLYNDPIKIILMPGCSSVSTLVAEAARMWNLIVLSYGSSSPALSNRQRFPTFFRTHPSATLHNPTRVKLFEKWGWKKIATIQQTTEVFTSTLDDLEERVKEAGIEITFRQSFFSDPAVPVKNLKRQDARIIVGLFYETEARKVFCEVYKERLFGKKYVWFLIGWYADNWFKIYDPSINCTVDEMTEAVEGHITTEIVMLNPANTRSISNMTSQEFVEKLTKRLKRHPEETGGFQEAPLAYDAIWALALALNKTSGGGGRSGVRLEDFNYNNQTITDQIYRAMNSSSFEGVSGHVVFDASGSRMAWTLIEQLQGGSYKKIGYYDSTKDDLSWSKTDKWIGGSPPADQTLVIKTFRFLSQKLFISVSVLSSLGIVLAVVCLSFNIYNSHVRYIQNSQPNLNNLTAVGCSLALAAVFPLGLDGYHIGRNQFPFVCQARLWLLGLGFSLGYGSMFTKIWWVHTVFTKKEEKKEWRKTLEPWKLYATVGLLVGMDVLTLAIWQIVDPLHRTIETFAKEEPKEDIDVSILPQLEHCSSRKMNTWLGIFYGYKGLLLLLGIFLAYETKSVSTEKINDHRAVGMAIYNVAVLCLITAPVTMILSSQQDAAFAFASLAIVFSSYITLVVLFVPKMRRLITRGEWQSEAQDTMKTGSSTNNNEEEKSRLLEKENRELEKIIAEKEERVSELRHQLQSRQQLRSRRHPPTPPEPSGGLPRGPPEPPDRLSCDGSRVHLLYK

Assay [4] deals with T4, 320 non-olfactory GPCRs (Homo sapiens, UniProt Q8IZF3).
T4 construct: expressed in transfected cells; host or cells: HTLA cells
T4 sequence (Q8IZF3 22-695): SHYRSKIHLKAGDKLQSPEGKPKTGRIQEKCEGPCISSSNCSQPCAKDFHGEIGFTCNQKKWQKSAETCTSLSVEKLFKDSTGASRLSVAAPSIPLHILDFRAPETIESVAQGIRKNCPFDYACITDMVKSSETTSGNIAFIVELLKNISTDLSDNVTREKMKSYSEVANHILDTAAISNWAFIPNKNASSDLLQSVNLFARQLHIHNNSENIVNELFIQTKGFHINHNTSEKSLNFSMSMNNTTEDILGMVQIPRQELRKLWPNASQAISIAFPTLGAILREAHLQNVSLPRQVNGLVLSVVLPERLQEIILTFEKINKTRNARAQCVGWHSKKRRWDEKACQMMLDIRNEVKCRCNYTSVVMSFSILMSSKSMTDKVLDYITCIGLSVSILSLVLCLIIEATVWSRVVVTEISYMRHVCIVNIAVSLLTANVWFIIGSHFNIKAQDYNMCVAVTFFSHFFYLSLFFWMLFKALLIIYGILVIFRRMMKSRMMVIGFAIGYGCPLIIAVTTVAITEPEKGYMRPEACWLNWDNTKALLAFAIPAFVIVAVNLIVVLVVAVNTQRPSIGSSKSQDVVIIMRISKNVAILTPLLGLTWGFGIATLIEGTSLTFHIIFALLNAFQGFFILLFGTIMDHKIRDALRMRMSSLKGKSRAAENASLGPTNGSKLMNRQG

Several values for one entry are separate records, joined by “and”; a condition that tells them apart may be missing. Equal values may be shown once.
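Also: compound tested at 1 µM final concentration.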

T1 sequence (P46663 whole entry): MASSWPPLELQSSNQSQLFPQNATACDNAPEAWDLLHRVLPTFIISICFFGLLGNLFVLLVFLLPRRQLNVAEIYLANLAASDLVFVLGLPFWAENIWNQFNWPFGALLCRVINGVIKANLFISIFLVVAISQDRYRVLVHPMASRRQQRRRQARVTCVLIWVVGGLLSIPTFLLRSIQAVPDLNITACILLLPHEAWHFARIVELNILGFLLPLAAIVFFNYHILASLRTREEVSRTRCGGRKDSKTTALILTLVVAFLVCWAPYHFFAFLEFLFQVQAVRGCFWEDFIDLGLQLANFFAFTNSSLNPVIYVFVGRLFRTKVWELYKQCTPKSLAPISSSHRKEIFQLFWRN
T2 sequence (Q99527 whole entry): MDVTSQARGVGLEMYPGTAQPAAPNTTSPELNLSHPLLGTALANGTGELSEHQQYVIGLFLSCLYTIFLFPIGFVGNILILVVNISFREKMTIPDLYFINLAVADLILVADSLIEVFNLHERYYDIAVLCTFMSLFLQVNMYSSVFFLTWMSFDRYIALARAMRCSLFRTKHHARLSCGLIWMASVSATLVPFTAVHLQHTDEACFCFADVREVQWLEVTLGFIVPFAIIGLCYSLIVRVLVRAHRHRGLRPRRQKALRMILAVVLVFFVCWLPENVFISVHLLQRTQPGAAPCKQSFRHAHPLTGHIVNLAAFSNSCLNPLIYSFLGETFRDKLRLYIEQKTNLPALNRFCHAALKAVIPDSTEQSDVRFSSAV

On to `CCOc1cccc2cc(C(C)NCC3(O)CCCCC3)oc12` (stereo not shown) [O4LE6], for which the “Fold of Basal” value is 0.6703 and 0.866 and 0.6219 and 0.6427 in assay [1]; 0.9251 and 0.8387 and 0.6915 and 0.7823 in assay [2]; 0.7465 and 0.7299 and 1.058 and 0.6886 in assay [3]; 1.314 and 0.8065 and 0.6945 in assay [4].
